Measurements from the supplement of paper PMC10307832.

Columns and labels:
Assay in all cases: relative viability (nuclei count vs DMSO), 5 days (fraction); higher = more cells survive
RO-3306 + Foretinib = compound: C1=CC2=C(C=CC(=C2)C=C3C(=O)NC(=NCC4=CC=CS4)S3)N=C1 [RO-3306] + COc1cc2c(Oc3ccc(NC(=O)C4(C(=O)Nc5ccc(F)cc5)CC4)cc3F)ccnc2cc1OCCCN1CCOCC1 [Foretinib] (partner 0.25 µM)
How it was run: (§1)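 Values are medians from duplicate plates. Each reflects relative viability, defined as the nuclei count of treated wells over that of vehicle wells. Lung cancer cell lines in 1536-well plates were pin-tool dosed one day after seeding with one drug alone or with a fixed anchor-drug dose plus five library-drug doses (not always all listed) in √10 steps, then fixed, stained and imaged at 4× after 5 days.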

RO-3306 + Decitabine = compound: C1=CC2=C(C=CC(=C2)C=C3C(=O)NC(=NCC4=CC=CS4)S3)N=C1 [RO-3306] + Nc1ncn([C@H]2C[C@H](O)[C@@H](CO)O2)c(=O)n1 [Decitabine] (partner 2 µM)
How it was run: as §1

[1] = compound: O=S(=O)(c1ccccc1)N(CC(F)(F)F)c1ccc(C(O)(C(F)(F)F)C(F)(F)F)cc1 + C[C@@H](Oc1cc(-c2cnn(C3CCNCC3)c2)cnc1N)c1c(Cl)ccc(F)c1Cl [Crizotinib] (partner 1 µM)
How it was run: as §1

[2] = compound: O=S(=O)(c1ccccc1)N(CC(F)(F)F)c1ccc(C(O)(C(F)(F)F)C(F)(F)F)cc1 + NC(=O)Nc1cc(-c2cccc(F)c2)sc1C(=O)N[C@H]1CCCNC1 [AZD7762] (partner 0.2 µM)
How it was run: as §1

[3] = compound: O=S(=O)(c1ccccc1)N(CC(F)(F)F)c1ccc(C(O)(C(F)(F)F)C(F)(F)F)cc1 + CCNC(=O)c1noc(-c2cc(C(C)C)c(O)cc2O)c1-c1ccc(CN2CCOCC2)cc1 [Luminespib] (partner 0.01 µM)
How it was run: as §1

| Cell Line | relative viability (RO-3306 + Foretinib; first compound 0.01 µM) | relative viability (RO-3306 + Foretinib; first compound 0.03162 µM) | relative viability (RO-3306 + Foretinib; first compound 0.1 µM) | relative viability (RO-3306 + Foretinib; first compound 0.3162 µM) | relative viability (RO-3306 + Foretinib; first compound 1 µM) | relative viability (RO-3306 + Decitabine; first compound 0.01 µM) | relative viability (RO-3306 + Decitabine; first compound 0.03162 µM) | relative viability (RO-3306 + Decitabine; first compound 0.1 µM) | relative viability (RO-3306 + Decitabine; first compound 0.3162 µM) | relative viability (RO-3306 + Decitabine; first compound 1 µM) | relative viability ([1]; first compound 0.8 µM) | relative viability ([1]; first compound 2.53 µM) | relative viability ([1]; first compound 8 µM) | relative viability ([2]; first compound 0.8 µM) | relative viability ([2]; first compound 2.53 µM) | relative viability ([2]; first compound 8 µM) | relative viability ([3]; first compound 0.8 µM) | relative viability ([3]; first compound 2.53 µM) | relative viability ([3]; first compound 8 µM) |
| --- | --- | --- | --- | --- | --- | --- | --- | --- | --- | --- | --- | --- | --- | --- | --- | --- | --- | --- | --- |
| NCI-H650 | 0.989 | 0.94 | 1.01 | 1.07 | 1.02 | 0.292 | 0.33 | 0.283 | 0.259 | 0.352 | 0.737 | 0.559 | 0.782 | 0.814 | 1.22 | 0.996 | 1.01 | 0.854 | 0.853 |
| NCI-H727 | 1.03 | 0.94 | 0.74 | 1.21 | 1.01 | 0.834 | 0.751 | 0.891 | 0.888 | 0.846 | 0.832 | 0.844 | 0.646 | 0.549 | 0.604 | 0.526 | 0.389 | 0.292 | 0.358 |
| NCI-H838 | 1.13 | 0.966 | 1.06 | 1.16 | 1.06 | 0.512 | 0.443 | 0.425 | 0.466 | 0.412 | 1.05 | 0.866 | 0.815 | 0.998 | 0.894 | 0.871 | 0.24 | 0.257 | 0.299 |
| NCI-H1355 | 1.04 |  | 1.05 | 1.02 | 0.942 | 0.395 | 0.341 | 0.353 | 0.355 | 0.362 | 1.22 | 0.98 | 0.935 | 0.789 | 0.733 | 0.703 | 0.781 | 0.756 | 0.759 |
| NCI-H1437 | 1.38 | 1.21 | 1.28 | 1.28 | 1.25 | 0.59 | 0.513 | 0.549 | 0.596 | 0.631 | 0.909 | 0.706 | 0.744 | 1.08 | 0.995 | 0.849 | 1.12 | 0.903 | 0.831 |
| NCI-H1651 | 0.986 | 0.723 | 0.879 | 0.8 | 0.823 | 0.671 | 0.562 | 0.587 | 0.664 | 0.58 | 1.02 | 0.882 | 0.849 | 0.471 | 0.449 | 0.39 | 0.995 | 0.871 | 0.732 |
| NCI-H1666 | 0.936 | 0.891 | 0.905 | 1.04 | 0.935 | 0.729 | 0.75 | 0.736 | 0.711 | 0.641 | 0.96 | 0.795 | 0.82 | 0.806 | 0.76 | 0.716 | 0.831 | 0.84 | 0.889 |
| NCI-H1734 | 0.759 | 0.746 | 0.893 | 0.924 | 0.804 | 0.621 | 0.471 | 0.471 | 0.566 | 0.502 | 0.789 | 0.728 | 0.649 | 0.617 | 0.67 | 0.343 | 0.191 | 0.217 | 0.204 |
| NCI-H1755 | 0.939 | 0.973 | 0.921 | 0.927 | 0.936 | 0.73 | 0.739 | 0.728 | 0.706 | 0.707 | 0.96 | 0.774 | 0.782 | 0.468 | 0.421 | 0.485 | 0.505 | 0.418 | 0.458 |
| NCI-H1915 | 1.14 | 0.891 | 1.15 | 1.11 | 1.23 | 0.245 | 0.262 | 0.252 | 0.239 | 0.251 | 0.958 | 0.894 | 0.834 | 0.712 | 0.731 | 0.682 | 0.813 | 0.776 | 0.786 |
| NCI-H1944 | 0.966 | 0.884 | 0.818 | 0.92 | 0.915 | 0.424 | 0.432 | 0.424 | 0.453 | 0.376 | 1.2 | 1.11 | 1.04 | 0.546 | 0.501 | 0.581 | 0.946 | 0.786 | 0.68 |
